TGI and GI50 data for nine compounds are collected here from PubChem BioAssay (NCI).

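Dose response: 5 concentrations. Exposure: 48 h. Format: 96-well plates. Endpoint: linear interpolation; highest concentration if not reached. GI50 = concentration required for 50% inhibition of growth. TGI denotes the concentration required for complete inhibition of growth.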 Bounds are passed on as bounds.

Common to all, as to assay: DTP human tumour cell line panel, 48 h
For experiment [1], the system named is OVCAR-4 ovarian.
Experiment [2] relates to SN12C renal.
Experiment [3] deals with MALME-3M melanoma.
Experiment [4] concerns SK-MEL-5 melanoma.
The test system of experiment [5] is COLO 205 colon.
Experiment [6] relates to KM12 colon.
Experiment [7] deals with T-47D breast.
The test system of experiment [8] is OVCAR-8 ovarian.
In experiment [9] the test system is K-562 leukemia.
For experiment [10], the system named is PC-3 prostate.
Experiment [11] relates to TK-10 renal.
Experiment [12] has as its system BT-549 breast.
The test system of experiment [13] is A549 NSCLC.
Experiment [14] concerns NCI/ADR-RES ovarian.
The subject of experiment [15] is SR leukemia.
Experiment [16] has as its system HCT-116 colon.
Experiment [17] relates to SK-MEL-28 melanoma.
Experiment [18] has as its system MDA-N.

Take `Cc1ccc(OC2CC(n3cnc4c(=O)[nH]c(Br)nc43)OC2Oc2ccc(C)cc2)cc1` (stereo not given): the TGI in experiment [1] is over 100 µM; in experiment [2], 56.5 µM; in [3] it was 61.5 µM; in experiment [4], 58.7 µM; in experiment [5], 82.8 µM; in experiment [6] it was over 100 µM. Also, the total growth inhibition concentration (TGI) in [7] came to 62.1 µM; in experiment [8], 66.5 µM; in experiment [9] it was 51.1 µM; in experiment [10], 49.8 µM; in experiment [11], 49.8 µM; in [12], 67.5 µM. Further, the TGI in experiment [13] is 69.7 µM; in experiment [14] it was 69.2 µM; in [15], 51.1 µM; in experiment [16] it was over 100 µM.
Consider `NCCSC1(O)C(=O)c2ccccc2-c2ccccc21` (stereo not given), for which the total growth inhibition concentration (TGI) in experiment [1] came out at 0.556 µM; in experiment [2] it was 2.76 µM; in experiment [3], 2.84 µM; in [4], 1.34 µM; in experiment [5] it was 3.84 µM; in [6], 3.33 µM. Further, the concentration for total growth inhibition (TGI) in experiment [7] worked out at 2.11 µM; in experiment [8], 1.16 µM; in experiment [9], 2.43 µM; in [10], 2.56 µM; in experiment [11] it was 3.26 µM; in experiment [17] it was 2.85 µM. The total growth inhibition concentration (TGI) in experiment [12] stood at 2.9 µM; in [13], 2.91 µM; in experiment [14], 1.4 µM; in experiment [15], 1.88 µM; in experiment [16], 1.04 µM. The GI50 in experiment [12] was 1.56 µM.
Take `CC1(C)OC[C@@H]([C@H](C=O)OCc2ccccc2)O1`: the TGI in experiment [1], in [18], in [2], in [3], in experiment [4] and in experiment [5] was over 100 µM in each case. Also, the total growth inhibition concentration (TGI) in experiment [6], in [8], in experiment [9], in experiment [10], in experiment [11] and in [17] was over 100 µM in each case. Moreover, the TGI in [13], in [14], in experiment [15] and in experiment [16] was over 100 µM each time.
As for `O=C1NC(=S)NC1C(Cc1ccccc1)c1ccco1` (stereo not given), the TGI in experiment [1], in experiment [18], in [2], in [3], in experiment [4] and in experiment [5] was over 100 µM throughout. In addition, the TGI in experiment [6], in experiment [7], in experiment [8], in experiment [9], in experiment [11] and in experiment [17] was over 100 µM each time. Moreover, the TGI in experiment [13], in experiment [14], in experiment [15] and in experiment [16] was over 100 µM in each case.
In the case of `O=C1CCN(CCC(F)(F)C(F)(F)C(F)(F)C(F)(F)F)C(=S)N1`, the total growth inhibition concentration (TGI) in experiment [1], in experiment [2], in [3], in [4], in [5] and in [6] was over 100 µM throughout. The TGI in experiment [8], in experiment [9], in [11], in experiment [17], in experiment [13] and in experiment [15] was over 100 µM each time. Moreover, the TGI in [16] is over 100 µM.
On to `CCOC(=O)c1sc2c(c1OC(=O)c1ccc(Cl)cc1Cl)c(=O)n(-c1ccccc1)c(=S)n2-c1ccccc1`, for which the total growth inhibition concentration (TGI) was over 100 µM in [1]; 68.7 µM in [18]; 22.6 µM in [2]; 66.3 µM in [3]; 51.1 µM in [4]; 35.4 µM in experiment [5]. For the same compound, the concentration for total growth inhibition (TGI) was over 42.3 µM in [6]; over 100 µM in experiment [7]; over 100 µM in experiment [8]; over 100 µM in experiment [9]; over 100 µM in [10]; over 100 µM in experiment [11]. Moreover, the TGI in experiment [17] is over 100 µM; in [13] it was over 100 µM; in experiment [14], over 47.8 µM; in [16], over 78.5 µM.
Consider `CCOC(=O)C1C(c2ccccc2)C2(C#N)C(=N)OC1(C)C2(C#N)C#N` (stereo not given), for which the concentration for total growth inhibition (TGI) was 27.9 µM in experiment [18]; 54.3 µM in experiment [3]; 25.1 µM in [4]; 31.5 µM in experiment [5]; over 100 µM in [7]; 80.4 µM in experiment [8]. Further, the TGI in [9] is 48.8 µM; in experiment [10], over 100 µM; in experiment [11], 69.7 µM; in experiment [13], over 100 µM; in [14] it was 85.9 µM; in experiment [16], 35.7 µM.
For `Cc1cc2c(=O)c3ccc(Cl)cc3[nH]c2c(C(=O)O)c1C`, the total growth inhibition concentration (TGI) in [1], in experiment [2], in [3], in [4], in [5] and in experiment [6] was over 100 µM in each case. Also, the TGI in experiment [8], in experiment [9], in [11], in experiment [17], in [13] and in experiment [16] was over 100 µM throughout.
As for `CCN(CC)CCC1CCCCN1CC(=O)N1c2ccccc2NC(=O)CC1C` (stereo not given), the TGI in [1], in experiment [18], in experiment [2], in experiment [3], in experiment [4] and in experiment [5] was over 100 µM each time. For the same compound, the TGI in [6], in experiment [7], in experiment [8], in experiment [9], in [10] and in experiment [11] was over 100 µM each time. Further, the TGI in [17], in experiment [13], in experiment [15] and in experiment [16] was over 100 µM each time.

One may read the TGI as the concentration at which net growth stops. A low value points to greater sensitivity of the cells. What is called GI50 is the concentration giving 50% growth inhibition.
